Measurements from article PMC6009935 (Journal of Enzyme Inhibition and Medicinal Chemistry, 2017).
Read-outs that look alike come from different tables or passages of the source.

How the values were obtained:
DOR = target: T1, DOR (Rattus norvegicus, UniProt P33533); assay: Radioligand competition binding with [3H]IleDelt II
T1 construct: a: performed in rat whole brain membrane homogenates; from tissue; host or cells: Wistar rat whole brain membrane homogenate
Procedure: (§1) Tris-HCl, EGTA, NaCl, MgCl2 x 6H2O, GDP, the GTP analogue GTPγS, were purchased from Sigma-Aldrich (Budapest, Hungary). Fatty acid free bovine serum albumin (BSA) was purchased from Serva (Heidelberg, Germany). Naloxone was kindly provided by the company Endo Laboratories DuPont de Nemours (Wilmington, DE, USA). HS665 was provided by Schmidhammer’s group (University of Innsbruck, Austria). […]
(§2) purchased from Tocris Bioscience (Bristol, UK).
(§3) DMSO. All compounds were stored in 1 mM stock solution at -20 °C. The radiolabelled GTP analogue, [35S]GTPγS (specific activity: 1000 Ci/mmol) were purchased from Hartmann Analytic (Braunschweig, Germany). [3H]DAMGO (specific activity: 38.8 Ci/mmol),12 [3H]IleDelt II (specific activity: 19,6 Ci/mmol), [3H]WIN55,212-2 (specific activity: 13,1 Ci/mmol) and [3H]HS665 (specific activity: 36.62 Ci/mmol),3 were radiolabeled by the Laboratory of Chemical Biology group in BRC (Szeged, Hungary).
(§4) For membrane homogenate preparations male and female Wistar rats (250-300 g body weight) and male guinea pigs (~700 g body weight, LAL/HA/BR strain) were used. Rats were housed in the local animal house of BRC (Szeged, Hungary), while guinea pigs were housed in LAB-ÁLL Bt.
(§5) (Budapest, Hungary). All the animals were kept in a temperature controlled room (21-24 °C) under a 12:12 light and dark cycle and were provided with water and food ad libitum. All housing and experiments were conducted in accordance with the European Communities Council Directives (2010/63/EU) and the Hungarian Act for the Protection of Animals in Research (XXVIII.tv. 32.§).
(§6) The total number of animals as well as their suffering was minimized.
(§7) Rat and guinea pig brain membrane homogenate preparation for binding assays Rats and guinea pigs were decapitated and their brains were quickly removed. The brains were prepared for membrane preparation as previously described,4 and partly used for binding experiments and partly were further prepared for the [35S]GTPγS binding experiments. Briefly the brains were homogenized, centrifuged in ice-cold 50 mM Tris-HCl (pH 7.4) buffer and incubated at 37 °C for 30 min in a shaking water-bath. After incubation the centrifugation was repeated as described above and the final pellet was suspended in 50 mM Tris-HCl pH 7.4 buffer containing 0.32 M sucrose, and stored at -80 °C. For the [35S]GTPγS binding experiments the final pellet of rat […]
(§8) brain membrane homogenate was suspended in ice-cold TEM (Tris-HCl, EGTA, MgCl2) and stored at -80 °C for further use.
(§9) Radioligand competition binding experiments
(§10) Aliquots of frozen rat brain membrane homogenates were centrifuged (18 000 rpm, 20 min, 4 °C) to remove sucrose and the pellets were suspended in 50 mM Tris-HCl buffer (pH 7.4). Membranes containing 0.4-0.8 mg/mL of protein were incubated in a final volume of 1 mL in the presence of unlabeled 5, 10 and 9 in increasing concentrations (10-11-10-5 M) in the presence of the appropriate radioligand in ~1 nM concentrations at certain temperature and amount of time depending on the radioligand ([3H]DAMGO and [3H]IleDelt II: 35 °C for 45 min; [3H]HS665: 30 °C, 45 min; [3H]WIN55,212-2: 30 °C for 60 min). Experiments performed with [3H]HS665 where incubated […]
(§11) more kappa receptors than the rat brain), while the rest of the radioligands were incubated together with rat whole brain membrane homogenates. Additionally, in experiments performed with […]
(§12) increasing concentrations (10-11-10-5 M) together with 50 mM Tris/HCl, 2.5 mM EGTA, 5 mM MgCl2 and 0.5 mg/mL fatty acid free BSA (pH 7.4). The level of non-specific binding was […]
(§13) binding was determined in the absence of unlabeled compounds. The reaction was terminated by rapid filtration under vacuum (Brandel M24R Cell Harvester), and washed three times with 5 mL ice-cold 50 mM Tris-HCl or 50 mM Tris/HCl, 2.5 mM EGTA, 5 mM MgCl2, 0.5 % BSA (pH 7.4) in case of [3H]WIN55,212-2. The filtration was accomplished through Whatman GF/C ([3H]DAMGO, [3H]IleDelt II and [3H]HS665) or GF/B ([3H]WIN55,212-2) glass fibers. In case of […]

KOR = target: T2, KOR (Cavia porcellus, UniProt P41144); assay: Radioligand competition binding with [3H]HS665; design: species or system guinea pig
T2 construct: b: performed in guinea pig whole brain membrane homogenates; from tissue; host or cells: guinea pig (LAL/HA/BR strain) whole brain membrane homogenate
Procedure: as §1, §2, §3, §4, §5, §6, §7, §8, §9, §10, §11
binding was determined in the absence of unlabeled compounds. […]

[1] = target: T3, cannabinoid receptors (CBR) (Rattus norvegicus, UniProt P20272); assay: biochemical; format: binding
T3 construct: a: performed in rat whole brain membrane homogenates; from tissue; host or cells: Wistar rat whole brain membrane homogenate
Procedure: as §1, §2, §3, §4, §5, §6, §7, §8, §9, §10, §11, §12, §13

[2] = system: hypothalamic synaptosomes; assay: In vitro hypothalamic perfusion test (neurotransmitter release); format: cell-based, rat; settings: 10 µM
Procedure: was evaluated with the analysis of variance followed by Dunnett’s post-hoc comparisons using GraphPad Prism 6.03 software. Statistical significance was assumed at least for P<0.05.
In vitro hypothalamic perfusion test
Hypothalamic synaptosomes were obtained from 18 male adult Sprague-Dawley rats (290-340 g), as previously described.9
Then, the synaptosome suspension was incubated at 37°C, under O2/CO2 95%/5%, pH 7.35-7.45, in Krebs-Ringer buffer (mM: NaCl 125, KCl 3, MgSO4 1.2, CaCl2 1.2, Tris-HCl 10, glucose 10, ascorbic acid 1). After the incubation period, identical aliquots of synaptosome suspension (1.24 mg protein determined by bicinchoninic acid protein assay) were layered onto 0.8 μm Millipore filters, placed into 37°C water-jacketed superfusion chambers [18 different chambers for each experiment and perfused with Krebs-Ringer buffer (0.6 mL/min)], and perfusate was collected (2 min fractions) to detect released neurotransmitters by HPLC coupled to electrochemical detection. The analytical conditions for amine identification and quantification in the perfusate fractions were selected on the basis of previous experiments performed on hypothalamus homogenate.10
The experimental protocol includes three phases: 10 min perfusion with Krebs-Ringer buffer in […]
buffer (stimulus); 8 min perfusion with Krebs-Ringer buffer for return to basal condition (post-stimulus). Perfusate was collected starting from the 8th minute of pre-stimulus. Perfusate aliquots were stored at -80°C, then lyophilized and finally suspended in 1 mL HPLC grade water for neurotransmitter quantification. Neurotransmitter release was expressed as mean percentage release recovered in the stimulus and post-stimulus, compared with initial basal conditions (pre-stimulus

MOR = target: T4, MOR (Rattus norvegicus, UniProt P33535); assay: Radioligand competition binding with [3H]DAMGO; settings: for Ki: Cheng-Prusoff; for IC50: read-out: logIC50 ± S.E.M., [3H]DAMGO (MOR) (converted)
T4 construct: a: performed in rat whole brain membrane homogenates; from tissue; host or cells: Wistar rat whole brain membrane homogenate
Procedure: as §1, §2, §3, §4, §5, §6, §7, §8, §9, §10, §11, §12, §13

[3] = rat whole brain membrane homogenates
[4] = rat whole brain membrane homogenates, logarithm of IC50, negative sign printed

| Compound | DOR binding affinity in words (DOR) | KOR binding affinity in words (KOR) | CBR / CB1R binding affinity in words [1] | effect on dopamine (DA) release [2] | effect on norepinephrine (NE) release [2] | effect on serotonin (5-HT) release [2] | MOR binding affinity in words (MOR) | Ki (MOR; [3]) [nM] | IC50 (MOR; [4]) [nM] | logIC50 ± S.E.M., [3H]WIN55,212 (CBR) [1, 4] | also measured |
| --- | --- | --- | --- | --- | --- | --- | --- | --- | --- | --- | --- |
| Cc1c(C(=O)NC2CCN(C(=O)[C@H](Cc3ccccc3)NC(=O)CNC(=O)[C@@H](C)NC(=O)[C@@H](N)Cc3ccc(O)cc3)CC2)nn(-c2ccc(Cl)cc2Cl)c1-n1cccc1 [Compound 9] | loss in affinity | unexpected improvement of affinity | modest affinity | reduced inhibitory effect | significant stimulatory effect | no significant effects | loss in affinity | 34.4 | 204 | – | Ki (DOR; rat whole brain membrane homogenates, Cheng-Prusoff): 443 nM; IC50 (DOR; rat whole brain membrane homogenates, logarithm of IC50, negative sign printed, read-out: logIC50 ± S.E.M., [3H]IleDelt II (DOR) (converted)): 1290 nM; Ki (KOR; guinea pig whole brain membrane homogenates, Cheng-Prusoff): 170 nM; IC50 (KOR; guinea pig whole brain membrane homogenates, logarithm of IC50, negative sign printed, read-out: logIC50 ± S.E.M., [3H]HS665 (KOR) (converted)): 263 nM; Selectivity ratio DOR/KOR (KOR; ratio of Ki values): 2.61; Ki ([1]; rat whole brain membrane homogenates, Cheng-Prusoff, read-out: Ki, [3H]WIN55,212 (CBR)): 5200 nM; IC50 ([1]; rat whole brain membrane homogenates, logarithm of IC50, negative sign printed, read-out: logIC50 ± S.E.M., [3H]WIN55,212 (CBR) (converted)): 6030 nM; Selectivity ratio DOR/MOR (MOR; ratio of Ki values): 12.88; Selectivity ratio KOR/MOR (MOR; ratio of Ki values): 4.93 |
| Cc1c(C(=O)NC2CCNCC2)nn(-c2ccc(Cl)cc2Cl)c1-n1cccc1 [Compound 5] | did not bind | negligible | – | decreased | – | – | did not bind | – | – | ambiguous | logIC50 ± S.E.M., [3H]IleDelt II (DOR) (DOR; [4]): ambiguous; logIC50 ± S.E.M., [3H]DAMGO (MOR) (MOR; [4]): ambiguous |
| C[C@@H](NC(=O)[C@@H](N)Cc1ccc(O)cc1)C(=O)NCC(=O)N[C@@H](Cc1ccccc1)C(N)=O [Compound 10, Tyr-D-Ala-Gly-Phe-NH2, reference compound] | high affinity | – | did not show any affinity | inhibitory effect | significant stimulatory effect | inhibitory effect | high affinity | 1 | 6.17 | ambiguous | IC50 (DOR): 316 nM; Ki (DOR): 107 nM |
